Laboratory results published in article PMC6753678, “Fueling Open Innovation for Malaria Transmission-Blocking Drugs: Hundreds of Molecules Targeting Early Parasite Mosquito Stages” (Frontiers in Microbiology, 2019).
Read-outs that look alike come from different tables or passages of the source.

Assays:
[1] = test system: HepG2 cells; test: HepG2 cytotoxicity assay; details: for Pb ODA (this manuscript) HepG2 cytoxicity: HepG2 cytotoxicity listed with the Pb ODA data set (this manuscript); for IC50: read-out: HepG2 cytotoxicity assay IC50, dose response confirmation
How it was run: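 HepG2 cells, 2,500 per well in MEM with 10% FBS and 1% NEAA, exposed to compounds for 48 h at 37°C, 5% CO2. Viability read by fluorescence; percent inhibition relative to 50 μM doxorubicin and DMSO controls.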

[2] = test system: 3D7-strain P. falciparum asexual parasites; test: P. falciparum asexual growth inhibition assay (Pf GIA); assay type: cell-based, Plasmodium falciparum; details: dose response confirmation; read-out: Pf asexual growth inhibition assays IC50
How it was run: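 Steps: seed parasites (0.25% parasitemia, 2% hematocrit) onto compound dilutions; incubate 72 h at 37°C, 5% O2/5% CO2; freeze at −70°C and thaw; add LDH reaction mix, read A650 after 10 min. Percent growth inhibition derived from chloroquine and DMSO controls, averaged over three biological replicates.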

[3] = test system: P. berghei ookinete development; details: for % inhibition, Replicate A / % inhibition, Replicate B: primary screen at 1 μM
[4] = read-out: Pb ODA (this manuscript) IC50, P. berghei ookinete development assay, this manuscript
[5] = read-out: Pb Ookinete development assay IC50, dose response confirmation
[6] = unified HepG2 value across the three screens
[7] = read-out: Pb ODA IC50, this manuscript
[8] = HepG2 values of the three screens unified

SMILES | Pb ODA (this manuscript) HepG2 cytoxicity [1] | IC50 [1] | IC50 [2] | Is compound selective in assay? Pb ODA active? [3] | % inhibition, Replicate A [3] | % inhibition, Replicate B [3] | IC50 [3, 4] | IC50 [3, 5] | Unified cytotox [1, 6] | Is compound selective in assay? Pb ODA active? ([3]; 1: YES, 0: NO) | IC50 [3, 7] | HepG2 cytoxicity (Pb ODA, this manuscript) [1] | Unified cytotox [1, 8]
Cc1nc2nc(N)nc(N)c2c(C)c1Cc1ccc(N)cc1.Cl [TCMDC-137633] | 0.08 µM | 80 nM | 287 nM | 0 (key: 1: YES; 0: NO) | 2.48% | 52.30% | 6210 nM | 6210 nM |  |  |  |  | 
COc1ccc2nc3cc(Cl)ccc3c(NCc3ccccc3)c2c1.Cl [TCMDC-137663] | 41.69 µM | 41700 nM | 424 nM | 1 (key: 1: YES; 0: NO) | 39.90% | 59.60% | 1630 nM | 1630 nM |  |  |  |  | 
Cc1nc2nc(N)nc(N)c2c(C)c1Cc1ccccc1.Cl [TCMDC-137670] | 0.03 µM | 30 nM | 169 nM | 0 (key: 1: YES; 0: NO) | 51.61% | 57.72% | 3020 nM | 3020 nM |  |  |  |  | 
Nc1nc(N)c2c(ccc3c2ncn3Cc2ccccc2)n1 [TCMDC-137749] |  | 1150 nM | 244 nM |  | 48.44% | 74.97% |  | 4450 nM | 1.15 µM | 0 (0: NO) | 4450 nM |  | 
CCC1=C[C@@H]2CN(C1)Cc1c([nH]c3ccccc13)[C@@](C(=O)OC)(c1cc3c(cc1OC)N(C)[C@H]1[C@@](O)(C(=O)OC)[C@H](O)[C@]4(CC)C=CCN5CC[C@]31[C@@H]54)C2.O=S(=O)(O)O [TCMDC-137769] |  | 41200 nM | 213 nM |  | 141.80% | 104.79% |  | 365 nM | 41.21 µM | 1 (1: YES) | 360 nM |  | 
Nc1nc(N)c2c(ccc3c2ccn3Cc2ccc3c(c2)OCO3)n1 [TCMDC-137808] |  | 32.4 nM | < 0.2 nM |  | 57.79% | 75.32% |  | 447 nM |  | 0 (0: NO) | 450 nM | 0.0324 µM | 0.0324 µM
COc1cccc(Cn2ccc3c4c(N)nc(N)nc4ccc32)c1 [TCMDC-137811] |  | 12.9 nM | < 0.2 nM |  | 65.46% | 68.96% |  | 1560 nM |  | 0 (0: NO) | 1560 nM | 0.0129 µM | 0.0129 µM
Cc1ccccc1Cn1ccc2c3c(N)nc(N)nc3ccc21 [TCMDC-137812] |  | 8.28 nM | < 0.3 nM |  | 41.40% | 62.61% |  | 429 nM |  | 0 (0: NO) | 430 nM | 0.00828 µM | 0.00828 µM
CCN(C)C(=O)n1ncc2c3c(N)nc(N)nc3ccc21 [TCMDC-137828] | 0.22 µM | 220 nM | 86 nM | 0 (key: 1: YES; 0: NO) | 30.59% | 54.76% | 2560 nM | 2560 nM |  |  |  |  | 
CCC(C)(C)c1ccc2nc(N)nc(N)c2c1C [TCMDC-137829] |  | 1.7 nM | 1.07 nM |  | 40.64% | 76.04% |  | 3100 nM | 0.0017 µM | 0 (0: NO) | 3100 nM |  | 
CCc1cc2c3c(N)nc(N)nc3ccc2n1CC [TCMDC-137851] |  | 22.4 nM | 2.53 nM |  | 53.59% | 40.48% |  | 986 nM |  | 0 (0: NO) | 990 nM | 0.0224 µM | 0.0224 µM
Cl.Nc1nc(N)c2c(ccc3c2cnn3S(=O)(=O)N2CCCC2)n1 [TCMDC-137852] | 0.00412 µM | 4.12 nM | 3.8 nM | 0 (key: 1: YES; 0: NO) | 40.87% | 51.00% |  | 1530 nM |  |  |  |  | 
Cl.Nc1nc(N)c2c(ccc3nn(S(=O)(=O)N4CCCC4)cc32)n1 [TCMDC-137854] | 0.12 µM | 120 nM | 144 nM | 0 (key: 1: YES; 0: NO) | 55.32% | 26.78% | 5300 nM | 5300 nM |  |  |  |  | 
CCn1c(C(C)C)cc2c3c(N)nc(N)nc3ccc21 [TCMDC-137856] |  | 3.02 nM | 6.37 nM |  | 104.91% | 74.96% |  | 588 nM |  | 0 (0: NO) | 590 nM | 0.00302 µM | 0.00302 µM
Cc1cc2c3c(N)nc(N)nc3ccc2n1C(C)C [TCMDC-137864] |  | 33.1 nM | 4 nM |  | 66.13% | 75.37% |  | 2320 nM |  | 0 (0: NO) | 2320 nM | 0.0331 µM | 0.0331 µM
Nc1nc(N)c2c(Cl)c(N3CCOCC3)ccc2n1 [TCMDC-137868] |  | 8.61 nM | 72 nM |  | 53.12% | 26.39% |  | 3800 nM | 0.00861 µM | 0 (0: NO) | 3800 nM |  | 
CCC(C(C)C)n1ccc2c3c(N)nc(N)nc3ccc21 (stereo not drawn) [TCMDC-137872] |  | 1.7 nM | < 0.2 nM |  | 63.79% | 69.72% |  | 474 nM |  | 0 (0: NO) | 470 nM | 0.0017 µM | 0.0017 µM
Cl.OCC(CO)(CO)NCc1ccc2c3c(cccc13)-c1ccccc1-2 [TCMDC-137877] |  | 9550 nM | 1970 nM |  | 56.61% | 22.47% |  | 564 nM | 9.55 µM | 1 (1: YES) | 560 nM |  | 
CCCC(CCC)n1ccc2c3c(N)nc(N)nc3ccc21.Cl [TCMDC-137949] |  | 1.7 nM | < 0.2 nM |  | 42.83% | 73.31% |  | 2780 nM |  | 0 (0: NO) | 2780 nM | 0.0017 µM | 0.0017 µM
Nc1nc(N)c2c(ccc3c2ccn3CCCCO)n1 [TCMDC-137959] |  | 75.9 nM | 61 nM |  | 70.70% | 40.44% |  | 3090 nM |  | 0 (0: NO) | 3090 nM | 0.0759 µM | 0.0759 µM
CCCC(C)n1ccc2c3c(N)nc(N)nc3ccc21 (stereo not drawn) [TCMDC-137964] |  | 30 nM | 35 nM |  | 50.53% | 51.77% |  | 4290 nM |  | 0 (0: NO) | 4290 nM | 0.03 µM | 0.03 µM
CC(C)Cn1ncc2c3c(N)nc(N)nc3ccc21 [TCMDC-137970] | 0.11 µM | 110 nM | 80 nM | 0 (key: 1: YES; 0: NO) | 76.14% | 41.76% | 1750 nM | 1750 nM |  |  |  |  | 
CN(C)S(=O)(=O)n1ccc2c3c(N)nc(N)nc3ccc21 [TCMDC-137973] | 0.0017 µM | 1.7 nM | 6 nM | 0 (key: 1: YES; 0: NO) | 72.90% | 52.14% | 1270 nM | 1270 nM |  |  |  |  | 
Nc1nc(N)c2c(ccc3c2ccn3Cc2ccccn2)n1 [TCMDC-137980] |  | 7.67 nM | 1.15 nM |  | 50.19% | 73.34% |  | 2430 nM |  | 0 (0: NO) |  | 0.00767 µM | 0.00767 µM
C=CCn1ccc2c3c(N)nc(N)nc3ccc21 [TCMDC-137995] |  | 1000 nM | 24 nM |  | 75.02% | 69.00% |  | 2480 nM |  | 0 (0: NO) | 2480 nM | 1.00 µM | 1.00 µM
